Measured values as given in patent US20240409531A1, “BENZOXAZINONE DERIVATIVES AS SELECTIVE CYTOTOXIC AGENTS” (Merck Sharp & Dohme LLC, priority 2021, published 2024).

test system: PBMCs infected with VSV-G pseudotyped HIV virus (VSV-G/pNLGI-P2A-ΔEnv); test: cells; type: cell-based; conditions: Homo sapiens, PBMC, read-out: TACK EC50 (nM)

SMILES	EC50 [nM]
Nc1nccn(Cc2cc3c(cc2F)[C@@](C#CC2CC2)(C(F)(F)F)OC(=O)N3)c1=O (single isomer, unassigned) [Example 1A]	39
O=C1Nc2cc(Cn3cnccc3=O)c(F)cc2[C@@](C#CC2CC2)(C(F)(F)F)O1 (single isomer, unassigned) [Example 2A]	88
Nc1cncn(Cc2cc3c(cc2F)[C@@](C#CC2CC2)(C(F)(F)F)OC(=O)N3)c1=O (single isomer, unassigned) [Example 3A]	46
COc1cc(=O)n(Cc2cc3c(cc2F)[C@@](C#CC2CC2)(C(F)(F)F)OC(=O)N3)cn1 (single isomer, unassigned) [Example 4A]	25
COCc1cc(=O)n(Cc2cc3c(cc2F)[C@@](C#CC2CC2)(C(F)(F)F)OC(=O)N3)cn1 (single isomer, unassigned) [Example 5A]	35
Cc1cc(=O)n(Cc2cc3c(cc2F)[C@@](C#CC2CC2)(C(F)(F)F)OC(=O)N3)cn1 (single isomer, unassigned) [Example 6A]	43
O=C1Nc2cc(Cn3cnc(C(F)F)cc3=O)c(F)cc2[C@@](C#CC2CC2)(C(F)(F)F)O1 (single isomer, unassigned) [Example 7A]	45
O=C1Nc2cc(Cn3cccn3)c(F)cc2[C@@](C#CC2CC2)(C(F)(F)F)O1 (single isomer, unassigned) [Example 29A]	428
NS(=O)(=O)c1ccc(Cc2ccc3c(c2)NC(=O)O[C@]3(C#CC2CC2)C(F)(F)F)cc1 (single isomer, unassigned) [Example 30A]	755
Nc1nccc(Cc2cc3c(cc2F)[C@@](C#CC2CC2)(C(F)(F)F)OC(=O)N3)n1 (single isomer, unassigned) [Example 31A]	91
N#Cc1c(Cc2cc3c(cc2F)[C@@](C#CC2CC2)(C(F)(F)F)OC(=O)N3)ccnc1N (single isomer, unassigned) [Example 32A]	111
CC(F)(F)[C@@]1(C#CC2CC2)OC(=O)Nc2cc(Cn3ccnc(N)c3=O)ccc21 [Example 8, (S)-7-((3-amino-2-oxopyrazin-1(2H)-yl)methyl)-4-(cyclopropylethynyl)-4-(1,1-difluoroethyl)-1,4-dihydro-2H-benzo[d][1,3]oxazin-2-one]	30
CC(F)(F)[C@@]1(C#CC2CC2)OC(=O)Nc2cc(Cn3cnccc3=O)ccc21 [Example 9, (S)-4-(cyclopropylethynyl)-4-(1,1-difluoroethyl)-7-((6-oxopyrimidin-1(6H)-yl)methyl)-1,4-dihydro-2H-benzo[d][1,3]oxazin-2-one]	90
Cc1cc(=O)n(Cc2ccc3c(c2)NC(=O)O[C@]3(C#CC2CC2)C(C)(F)F)cn1 [Example 10, (S)-4-(cyclopropylethynyl)-4-(1,1-difluoroethyl)-7-((4-methyl-6-oxopyrimidin-1(6H)-yl)methyl)-1,4-dihydro-2H-benzo[d][1,3]oxazin-2-one]	66
COc1cc(=O)n(Cc2ccc3c(c2)NC(=O)O[C@]3(C#CC2CC2)C(C)(F)F)cn1 [Example 11, (S)-4-(cyclopropylethynyl)-4-(1,1-difluoroethyl)-7-((4-methoxy-6-oxopyrimidin-1(6H)-yl)methyl)-1,4-dihydro-2H-benzo[d][1,3]oxazin-2-one]	47
COCc1cc(=O)n(Cc2ccc3c(c2)NC(=O)O[C@]3(C#CC2CC2)C(C)(F)F)cn1 [Example 12, (S)-4-(cyclopropylethynyl)-4-(1,1-difluoroethyl)-7-((4-(methoxymethyl)-6-oxopyrimidin-1(6H)-yl)methyl)-1,4-dihydro-2H-benzo[d][1,3]oxazin-2-one]	68
COc1cc(=O)n(Cc2cc3c(cc2Cl)[C@@](C#CC2CC2)(C(C)(F)F)OC(=O)N3)cn1 [Example 13, (S)-6-chloro-4-(cyclopropylethynyl)-4-(1,1-difluoroethyl)-7-((4-methoxy-6-oxopyrimidin-1(6H)-yl)methyl)-1,4-dihydro-2H-benzo[d][1,3]oxazin-2-one]	11

SMILES	EC50 [nM]
COc1cc(=O)n(Cc2cc3c(cc2Cl)[C@@](C#CC2CC2)(C(F)(F)F)OC(=O)N3)cn1 [Example 14, (S)-6-chloro-4-(cyclopropylethynyl)-7-((4-methoxy-6-oxopyrimidin-1(6H)-yl)methyl)-4-(trifluoromethyl)-1,4-dihydro-2H-benzo[d][1,3]oxazin-2-one]	63
O=C1Nc2cc(Cn3cnccc3=O)c(Cl)cc2[C@@](C#CC2CC2)(C(F)(F)F)O1 [Example 15, (S)-6-chloro-4-(cyclopropylethynyl)-7-((6-oxopyrimidin-1(6H)-yl)methyl)-4-(trifluoromethyl)-1,4-dihydro-2H-benzo[d][1,3]oxazin-2-one]	63
Nc1nccn(Cc2cc3c(cc2Cl)[C@@](C#CC2CC2)(C(F)(F)F)OC(=O)N3)c1=O [Example 16, (S)-7-((3-amino-2-oxopyrazin-1(2H)-yl)methyl)-6-chloro-4-(cyclopropylethynyl)-4-(trifluoromethyl)-1,4-dihydro-2H-benzo[d][1,3]oxazin-2-one]	113
Cc1cc(=O)n(Cc2cc3c(cc2Cl)[C@@](C#CC2CC2)(C(F)(F)F)OC(=O)N3)cn1 [Example 17, (S)-6-chloro-4-(cyclopropylethynyl)-7-((4-methyl-6-oxopyrimidin-1(6H)-yl)methyl)-4-(trifluoromethyl)-1,4-dihydro-2H-benzo[d][1,3]oxazin-2-one]	92
O=C1Nc2cc(Cn3cnc(C(F)F)cc3=O)c(Cl)cc2[C@@](C#CC2CC2)(C(F)(F)F)O1 [Example 18, (S)-6-chloro-4-(cyclopropylethynyl)-7-((4-(difluoromethyl)-6-oxopyrimidin-1(6H)-yl)methyl)-4-(trifluoromethyl)-1,4-dihydro-2H-benzo[d][1,3]oxazin-2-one]	83
COCc1cc(=O)n(Cc2cc3c(cc2Cl)[C@@](C#CC2CC2)(C(F)(F)F)OC(=O)N3)cn1 [Example 19, (S)-6-chloro-4-(cyclopropylethynyl)-7-((4-(methoxymethyl)-6-oxopyrimidin-1(6H)-yl)methyl)-4-(trifluoromethyl)-1,4-dihydro-2H-benzo[d][1,3]oxazin-2-one]	128
CC(F)(F)[C@@]1(C#CC2CC2)OC(=O)Nc2cc(Cn3cncc(N)c3=O)c(F)cc21 [Example 20, (S)-7-((5-amino-6-oxopyrimidin-1(6H)-yl)methyl)-4-(cyclopropylethynyl)-4-(1,1-difluoroethyl)-6-fluoro-1,4-dihydro-2H-benzo[d][1,3]oxazin-2-one]	11
CC(F)(F)[C@@]1(C#CC2CC2)OC(=O)Nc2cc(Cn3ccnc(N)c3=O)c(F)cc21 [Example 21, (S)-7-((3-amino-2-oxopyrazin-1(2H)-yl)methyl)-4-(cyclopropylethynyl)-4-(1,1-difluoroethyl)-6-fluoro-1,4-dihydro-2H-benzo[d][1,3]oxazin-2-one]	12
CC(F)(F)[C@@]1(C#CC2CC2)OC(=O)Nc2cc(Cn3cnccc3=O)c(F)cc21 [Example 22, (S)-4-(cyclopropylethynyl)-4-(1,1-difluoroethyl)-6-fluoro-7-((6-oxopyrimidin-1(6H)-yl)methyl)-1,4-dihydro-2H-benzo[d][1,3]oxazin-2-one]	12
COCc1cc(=O)n(Cc2cc3c(cc2F)[C@@](C#CC2CC2)(C(C)(F)F)OC(=O)N3)cn1 [Example 23, (S)-4-(cyclopropylethynyl)-4-(1,1-difluoroethyl)-6-fluoro-7-((4-(methoxymethyl)-6-oxopyrimidin-1(6H)-yl)methyl)-1,4-dihydro-2H-benzo[d][1,3]oxazin-2-one]	16
COc1cc(=O)n(Cc2cc3c(cc2F)[C@@](C#CC2CC2)(C(C)(F)F)OC(=O)N3)cn1 [Example 24, (S)-4-(cyclopropylethynyl)-4-(1,1-difluoroethyl)-6-fluoro-7-((4-methoxy-6-oxopyrimidin-1(6H)-yl)methyl)-1,4-dihydro-2H-benzo[d][1,3]oxazin-2-one]	9
CC(F)(F)[C@@]1(C#CC2CC2)OC(=O)Nc2cc(Cn3ccnc(N)c3=O)c(Cl)cc21 [Example 25, (S)-7-((3-amino-2-oxopyrazin-1(2H)-yl)methyl)-6-chloro-4-(cyclopropylethynyl)-4-(1,1-difluoroethyl)-1,4-dihydro-2H-benzo[d][1,3]oxazin-2-one]	37
CC(F)(F)[C@@]1(C#CC2CC2)OC(=O)Nc2cc(Cn3cnccc3=O)c(Cl)cc21 [Example 26, (S)-6-chloro-4-(cyclopropylethynyl)-4-(1,1-difluoroethyl)-7-((6-oxopyrimidin-1(6H)-yl)methyl)-1,4-dihydro-2H-benzo[d][1,3]oxazin-2-one]	16
COCc1cc(=O)n(Cc2cc3c(cc2Cl)[C@@](C#CC2CC2)(C(C)(F)F)OC(=O)N3)cn1 [Example 27, (S)-6-chloro-4-(cyclopropylethynyl)-4-(1,1-difluoroethyl)-7-((4-(methoxymethyl)-6-oxopyrimidin-1(6H)-yl)methyl)-1,4-dihydro-2H-benzo[d][1,3]oxazin-2-one]	16
Cc1cc(=O)n(Cc2cc3c(cc2Cl)[C@@](C#CC2CC2)(C(C)(F)F)OC(=O)N3)cn1 [Example 28, (S)-6-chloro-4-(cyclopropylethynyl)-4-(1,1-difluoroethyl)-7-((4-methyl-6-oxopyrimidin-1(6H)-yl)methyl)-1,4-dihydro-2H-benzo[d][1,3]oxazin-2-one]	15
N#Cc1c(Cc2cc3c(cc2Cl)[C@@](C#CC2CC2)(C(F)(F)F)OC(=O)N3)ccnc1N [Example 33, (S)-2-amino-4-((6-chloro-4-(cyclopropylethynyl)-2-oxo-4-(trifluoromethyl)-1,4-dihydro-2H-benzo[d][1,3]oxazin-7-yl)methyl)nicotinonitrile]	213
CC(F)(F)[C@@]1(C#CC2CC2)OC(=O)Nc2cc(Cc3ccnc(N)c3C#N)c(Cl)cc21 [Example 34, (S)-2-amino-4-((6-chloro-4-(cyclopropylethynyl)-4-(1,1-difluoroethyl)-2-oxo-1,4-dihydro-2H-benzo[d][1,3]oxazin-7-yl)methyl)nicotinonitrile]	76
